Measurements reported in patent US20260315487A1, “IKK-ALPHA INHIBITORS” (Cancer Research Technology Limited, priority 2023, published 2026).

Tests used:
[1] = target: T1, IKKα (Homo sapiens, UniProt O15111); assay: activity and selectivity in cells; assay type: cell-based
T1 sequence (O15111 1-745): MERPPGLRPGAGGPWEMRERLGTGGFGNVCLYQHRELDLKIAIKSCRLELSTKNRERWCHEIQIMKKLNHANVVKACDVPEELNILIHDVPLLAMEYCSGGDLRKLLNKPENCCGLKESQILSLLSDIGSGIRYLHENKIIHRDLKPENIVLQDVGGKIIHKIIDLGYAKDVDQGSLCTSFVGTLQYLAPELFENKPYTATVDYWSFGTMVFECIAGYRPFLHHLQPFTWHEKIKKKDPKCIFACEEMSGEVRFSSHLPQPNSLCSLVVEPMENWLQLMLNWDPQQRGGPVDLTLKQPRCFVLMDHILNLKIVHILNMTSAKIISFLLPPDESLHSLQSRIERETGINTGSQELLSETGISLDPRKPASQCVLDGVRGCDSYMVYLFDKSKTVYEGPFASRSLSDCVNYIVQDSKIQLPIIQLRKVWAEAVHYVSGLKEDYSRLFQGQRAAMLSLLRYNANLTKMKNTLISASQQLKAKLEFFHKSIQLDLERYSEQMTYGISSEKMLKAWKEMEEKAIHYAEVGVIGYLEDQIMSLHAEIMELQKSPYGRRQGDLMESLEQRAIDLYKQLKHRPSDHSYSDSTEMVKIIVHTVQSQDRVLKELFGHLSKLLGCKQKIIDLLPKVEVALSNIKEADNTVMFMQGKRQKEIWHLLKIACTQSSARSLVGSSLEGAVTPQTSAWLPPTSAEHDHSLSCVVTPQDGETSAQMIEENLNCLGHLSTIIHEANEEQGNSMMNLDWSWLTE

[2] = tested on: IKKα over IKKβ; assay: selectivity for IKKα over IKKβ from the kinase assay; assay type: biochemical
Description: To examine the pyrrolo[2,3 -b]pyridines as an alternative scaffold, we adopted the AIPP core because it had similar dimensions to 1 SU909, with HBD/HBA motifs positioned at the scaffold extremities to interact with both the hinge region and the G-loop wall of IKKα, a rationale we had previously proposed as the basis for imparting selectivity. A preliminary set of AIPP derivatives was designed to explore its utility as an IKK-targeting scaffold, whilst incorporating additional functionality through which to introduce selectivity for the IKKα isoform (2-4 SU1087, SU1266 and SU1253; FIG. 3). This was achieved by initially adopting two different approaches: either appending a hydrophobic moiety to the pyrrolo[2,3 -b]pyridine motif as a fused form to afford the tricyclic derivatives 2 and 3 SU1266 and SU1087, or as a phenyl substituent to introduce flexibility with the central pyrrolo[2,3 -b]pyridine moiety in 4 SU1253 . […] The pyrrolo[2,3 -b]pyridine was bound to the hinge region in the classical HBA/HBD motif with the GK+3 NH and C═O backbone, whilst the aminoindazole projected towards the top of the pocket to interact with the G-loop (FIG. 4A). […] In both isoforms, the 2 -phenyl moiety was oriented out from the hinge towards the exposed solvent area.
To shift the selectivity profile towards IKKα, we selected 4 SU1253 for structural optimization based on the notion that sigma-bond rotation between the phenyl ring and the pyrrolo[2,3 -b]pyridine would inbuild the flexibility required to engage with the three dimensional array of residues nearby to exploit differences between the two isoforms. Furthermore, this would enable the inclusion of moieties that could also project into solvent and address solubility considerations. Small groups (NH2, OH, OMe, OEt and F) were initially introduced into the phenyl ring to evaluate their impact on the selectivity profile against both IKKs (5 a-g SU1354 -SU1373, Table 2 ). Our goal was to achieve a 1:50 selectivity ratio of IKKα to IKKβ, with a minimum IKKβ inhibitory Ki of 500 nM.

[3] = tested on: mouse hepatocytes; assay: mouse hepatocyte clearance (cryopreserved pooled mouse CD1 hepatocytes); assay type: in vitro ADME; details: mouse hepatocytes
Description: Pharmacokinetic studies were contracted to Sygnature Discovery Limited. Intrinsic clearance and half life were determined using cryopreserved pooled mouse CD1 hepatocytes. Test compounds were analysed at 1 μM in Williams Media E buffer (0.01 % DMSO) at a cell density of 0.5×10^6 cells mL^−1 . Cells were incubated at 37° C. for one hour with shaking and compound depletion was measured by LC-MS/MS at six timepoints (0.25, 5, 10, 20, 40, and 60 minutes).

Compound	activity and selectivity in cells, in words [1]	selectivity for IKKα over IKKβ, in words [2]	selectivity for IKKα over IKKβ ([2]; ratio of Ki)	in vitro murine clearance, in words [3]
Nc1n[nH]c2ccc(-c3ccnc4[nH]c(-c5cccc(OCc6ccccc6)c5)cc34)cc12 [5r SU1261, 5-(2-(3-(benzyloxy)phenyl)-1 H-pyrrolo[2,3-b]pyridin-4-yl)-1 H-indazol-3-amine]	activity and selectivity being recapitulated in cells	–	–	–
Nc1n[nH]c2ccc(-c3ccnc4[nH]c(-c5ccnc(OCc6ccccc6)c5)cc34)cc12 [6g SU1349, 5-(2-(2-(Benzyloxy)pyridin-4-yl)-1 H-pyrrolo[2,3-b]pyridin-4-yl)-1 H-indazol-3-amine]	–	essential selectivity profile	209 fold	sufficiently low in vitro murine clearance
